Biological target: AMPK
Experiment: AMPK activation, enzyme-linked immunosorbent assay
Type: biochemical
Conditions: Table 2, ELISA
Procedure: Compounds 1-54 were assayed for their ability to activate AMPK using an enzyme-linked immunosorbent assay.
Compounds 55-62 of Table 1 were assayed for their ability to activate AMPK using an enzyme-linked immunosorbent assay.
Compounds 63-66 of Table 1 were assayed for their ability to activate AMPK using an enzyme-linked immunosorbent assay.
Compounds 67-71 of Table 1 were assayed for their ability to activate AMPK using an enzyme-linked immunosorbent assay.
Compound 72 of Table 1 was assayed for its ability to activate AMPK using an enzyme-linked immunosorbent assay.

SMILES | EC50
N#Cc1ccc(CN2CCC(NC(=O)c3ccc4[nH]c5c(c4c3)CN(C(=O)OCc3ccccc3)CC5)CC2)cc1 [Compound 1, benzyl 8-(1-(4-cyanobenzyl)piperidin-4-ylcarbamoyl)-3,4-dihydro-1H-pyrido[4,3-b]indole-2(5H)-carboxylate] | 1000 to 5000 nM
O=C(NC1CCN(Cc2ccccc2)CC1)c1ccc2[nH]c3c(c2c1)CN(C(=O)OCc1ccccc1)CC3 [Compound 2, benzyl 8-(1-(4-benzyl)piperidin-4-ylcarbamoyl)-3,4-dihydro-1H-pyrido[4,3-b]indole-2(5H)-carboxylate] | 10000 to 50000 nM
CC(C)(C)OC(=O)N1CCC(NC(=O)c2ccc3[nH]c4c(c3c2)CN(C(=O)OCc2ccccc2)CC4)CC1 [Compound 3, benzyl 8-(1-(tert-butoxy-carbonyl)piperidin-4-ylcarbamoyl)-3,4-dihydro-1H-pyrido[4,3-b]indole-2(5H)-carboxylate] | 10000 to 50000 nM
N#Cc1ccc(CN2CCC(NC(=O)c3ccc4[nH]c5c(c4c3)CN(Cc3ccccc3)CC5)CC2)cc1 [Compound 4, 2-benzyl-N-(1-(4-cyano-benzyl)piperidin-4-yl)-2,3,4,5-tetrahydro-1H-pyrido[4,3-b]indole-8-carboxamide] | 1000 to 5000 nM
O=C(NC1CCN(Cc2ccc(C(F)(F)F)cc2)CC1)c1ccc2[nH]c3c(c2c1)CN(Cc1ccccc1)CC3 [Compound 5, 2-benzyl-N-(1-(4-trifluoromethylbenzyl)piperidin-4-yl)-2,3,4,5-tetrahydro-1H-pyrido [4,3-b]indole-8-carboxamide] | 1000 to 5000 nM
O=C(NC1CCN(Cc2ccncc2)CC1)c1ccc2[nH]c3c(c2c1)CN(Cc1ccccc1)CC3 [Compound 7, 2-benzyl-N-(1-(pyridin-4-ylmethyl)piperidin-4-yl)-2,3,4,5-tetrahydro-1H-pyrido[4,3-b]indole-8-carboxamide] | 5000 to 10000 nM
O=C(NC1CCN(Cc2cccnc2)CC1)c1ccc2[nH]c3c(c2c1)CN(Cc1ccc(F)cc1)CC3 [Compound 8, 2-(4-fluorobenzyl)-N-(1-(pyridin-3-ylmethyl)piperidin-4-yl)-2,3,4,5-tetrahydro-1H-pyrido [4,3-b]indole-8-carboxamide] | 5000 to 10000 nM
Cn1c2c(c3cc(C(=O)NC4CCN(Cc5cccnc5)CC4)ccc31)CN(Cc1ccc(C(F)(F)F)cc1)CC2 [Compound 18, 5-methyl-N-(1-(pyridin-3-ylmethyl)piperidin-4-yl)-2-(4-(trifluoromethyl)benzyl)-2,3,4,5-tetrahydro-1H-pyrido[4,3-b]indole-8-carboxamide] | 1000 to 5000 nM
O=C(NC1CCN(Cc2ccccc2)CC1)c1ccc2[nH]c3c(c2c1)CN(S(=O)(=O)c1ccc(C(F)(F)F)cc1)CC3 [Compound 19, N-(1-benzylpiperidin-4-yl)-2-(4-(trifluoromethyl)phenylsulfonyl)-2,3,4,5-tetrahydro-1H-pyrido [4,3-b]indole-8-carboxamide] | > 100000 nM
CC(=O)n1c2c(c3cc(C(=O)NC4CCN(Cc5cccnc5)CC4)ccc31)CN(Cc1ccc(C(F)(F)F)cc1)CC2 [Compound 20, 5-acetyl-N-(1-(pyridin-3-ylmethyl)piperidin-4-yl)-2-(4-(trifluoromethyl)benzyl)-2,3,4,5-tetrahydro-1H-pyrido[4,3-b]indole-8-carboxamide] | 1000 to 5000 nM
O=C(NC1CCN(S(=O)(=O)c2ccc(C(F)(F)F)cc2)CC1)c1ccc2[nH]c3c(c2c1)CN(Cc1ccc(C(F)(F)F)cc1)CC3 [Compound 23, 2-(4-(trifluoromethyl)benzyl)-N-(1-(4-(trifluoro-methyl)phenylsulfonyl)piperidin-4-yl)-2,3,4,5-tetrahydro-1H-pyrido[4,3-b]indole-8-carboxamide] | 1000 to 5000 nM
N#Cc1ccc(CN2CCC(NC(=O)c3ccc4[nH]c5c(c4c3)CN(S(=O)(=O)c3ccc(C(F)(F)F)cc3)CC5)CC2)cc1 [Compound 24, N-(1-(4-cyanobenzyl)piperidin-4-yl)-2-(4-(trifluoromethyl)phenyl-sulfonyl)-2,3,4,5-tetrahydro-1H-pyrido[4,3-b]indole-8-carboxamide] | 1000 to 5000 nM
N#Cc1ccc(CN2CCC(NC(=O)c3ccc4[nH]c5c(c4c3)CN(S(=O)(=O)c3ccc(C#N)cc3)CC5)CC2)cc1 [Compound 25, N-(1-(4-cyanobenzyl)piperidin-4-yl)-2-(4-cyanophenylsulfonyl)-2,3,4,5-tetrahydro-1H-pyrido[4,3-b]indole-8-carboxamide] | 10000 to 50000 nM
N#Cc1ccc(CN2CCC(NC(=O)c3ccc4[nH]c5c(c4c3)CN(S(=O)(=O)c3cccnc3)CC5)CC2)cc1 [Compound 26, N-(1-(4-cyanobenzyl)piperidin-4-yl)-2-(pyridin-3-ylsulfonyl)-2,3,4,5-tetrahydro-1H-pyrido [4,3-b]indole-8-carboxamide] | 10000 to 50000 nM
N#Cc1ccc(NC(=O)N2CCC(NC(=O)c3ccc4[nH]c5c(c4c3)CN(Cc3ccc(C(F)(F)F)cc3)CC5)CC2)cc1 [Compound 27, N-(1-(4-cyanophenyl-carbamoyl)piperidin-4-yl)-2-(4-(trifluoro-methyl)benzyl)-2,3,4,5-tetrahydro-1H-pyrido [4,3-b]indole-8-carboxamide] | 1000 to 5000 nM
O=C(NC1CCN(S(=O)(=O)c2ccc(F)cc2)CC1)c1ccc2[nH]c3c(c2c1)CN(Cc1ccc(C(F)(F)F)cc1)CC3 [Compound 28, N-(1-(4-fluorophenyl-sulfonyl)piperidin-4-yl)-2-(4-(trifluoromethyl)benzyl)-2,3,4,5-tetrahydro-1H-pyrido[4,3-b]indole-8-carboxamide] | 1000 to 5000 nM
N#Cc1cccc(S(=O)(=O)N2CCC(NC(=O)c3ccc4[nH]c5c(c4c3)CN(Cc3ccc(C(F)(F)F)cc3)CC5)CC2)c1 [Compound 29, N-(1-(3-cyanophenyl-sulfonyl)piperidin-4-yl)-2-(4-(trifluoromethyl)benzyl)-2,3,4,5-tetrahydro-1H-pyrido[4,3-b]indole-8-carboxamide] | 1000 to 5000 nM

Next, values leading:

EC50 | SMILES
500 to 1000 nM | CC(C)(C)OC(=O)N1CCC(NC(=O)c2ccc3[nH]c4c(c3c2)CN(Cc2ccc(C(F)(F)F)cc2)CC4)CC1 [Compound 6, tert-butyl 4-(2-(4-(trifluoromethyl)benzyl)-2,3,4,5-tetrahydro-1H-pyrido[4,3-b]indole-8-carboxamido)piperidine-1-carboxylate]
< 500 nM | N#Cc1ccc(CN2CCC(NC(=O)c3ccc4[nH]c5c(c4c3)CN(Cc3ccc(F)cc3)CC5)CC2)cc1 [Compound 9, N-(1-(4-cyanobenzyl)piperidin-4-yl)-2-(4-fluorobenzyl)-2,3,4,5-tetrahydro-1H-pyrido [4,3-b]indole-8-carboxamide]
500 to 1000 nM | O=C(NC1CCN(Cc2ccc(C(F)(F)F)cc2)CC1)c1ccc2[nH]c3c(c2c1)CN(Cc1ccc(F)cc1)CC3 [Compound 10, N-(1-(4-trifluoromethyl-benzyl)piperidin-4-yl)-2-(4-fluorobenzyl)-2,3,4,5-tetrahydro-1H-pyrido[4,3-b]indole-8-carboxamide]
< 500 nM | O=C(NC1CCN(Cc2cccnc2)CC1)c1ccc2[nH]c3c(c2c1)CN(Cc1ccc(C(F)(F)F)cc1)CC3 [Compound 11, N-(1-(pyridin-3-ylmethyl)piperidin-4-yl)-2-(4-(trifluoromethyl)benzyl)-2,3,4,5-tetrahydro-1H-pyrido[4,3-b]indole-8-carboxamide]
< 500 nM | N#Cc1ccc(CN2CCC(NC(=O)c3ccc4[nH]c5c(c4c3)CN(Cc3ccc(C(F)(F)F)cc3)CC5)CC2)cc1 [Compound 12, N-(1-(4-cyanobenzyl)piperidin-4-yl)-2-(4-(trifluoromethyl)benzyl)-2,3,4,5-tetrahydro-1H-pyrido[4,3-b]indole-8-carboxamide]
< 500 nM | O=C(NC1CCN(Cc2ccc(C(F)(F)F)cc2)CC1)c1ccc2[nH]c3c(c2c1)CN(Cc1ccc(C(F)(F)F)cc1)CC3 [Compound 13, N-(1-(4-trifluoromethyl-benzyl)piperidin-4-yl)-2-(4-(trifluoromethyl)benzyl)-2,3,4,5-tetrahydro-1H-pyrido[4,3-b]indole-8-carboxamide]
< 500 nM | O=C(NC1CCN(CCc2ccccc2)CC1)c1ccc2[nH]c3c(c2c1)CN(Cc1ccc(C(F)(F)F)cc1)CC3 [Compound 14, N-(1-phenethyl-piperidin-4-yl)-2-(4-(trifluoromethyl)benzyl)-2,3,4,5-tetrahydro-1H-pyrido[4,3-b]indole-8-carboxamide]
< 500 nM | O=C(NC1CCN(c2ccc(F)cc2)CC1)c1ccc2[nH]c3c(c2c1)CN(Cc1ccc(C(F)(F)F)cc1)CC3 [Compound 15, N-(1-(4-fluorophenyl)piperidin-4-yl)-2-(4-(trifluoromethyl)benzyl)-2,3,4,5-tetrahydro-1H-pyrido[4,3-b]indole-8-carboxamide]
< 500 nM | Cn1c2c(c3cc(C(=O)NC4CCN(Cc5ccc(C#N)cc5)CC4)ccc31)CN(Cc1ccc(C(F)(F)F)cc1)CC2 [Compound 16, N-(1-(4-cyanobenzyl)piperidin-4-yl)-5-methyl-2-(4-(trifluoromethyl)benzyl)-2,3,4,5-tetrahydro-1H-pyrido[4,3-b]indole-8-carboxamide]
500 to 1000 nM | Cn1c2c(c3cc(C(=O)NC4CCN(Cc5ccc(C(F)(F)F)cc5)CC4)ccc31)CN(Cc1ccc(C(F)(F)F)cc1)CC2 [Compound 17, N-(1-(4-trifluoromethyl-benzyl)piperidin-4-yl)-5-methyl-2-(4-(trifluoro-methyl)benzyl)-2,3,4,5-tetrahydro-1H-pyrido [4,3-b]indole-8-carboxamide]
500 to 1000 nM | N#Cc1ccc(S(=O)(=O)N2CCC(NC(=O)c3ccc4[nH]c5c(c4c3)CN(Cc3ccc(C(F)(F)F)cc3)CC5)CC2)cc1 [Compound 21, N-(1-(4-cyanophenyl-sulfonyl)piperidin-4-yl)-2-(4-(trifluoromethyl)benzyl)-2,3,4,5-tetrahydro-1H-pyrido[4,3-b]indole-8-carboxamide]
500 to 1000 nM | O=C(NC1CCN(S(=O)(=O)c2cccnc2)CC1)c1ccc2[nH]c3c(c2c1)CN(Cc1ccc(C(F)(F)F)cc1)CC3 [Compound 22]
